# Experiments:
# [1] = system: DMS114 cells; experiment: Incucyte proliferation (% confluence over time), DMS114 cells, long-term treatment; format: cell-based; settings: compound A 1 microM, BMS-754807 300 nM, GSK1838705A 1 microM, each alone
# Protocol: The insensitive cells were isolated and profiled with the aim to determine the active signaling pathways that act as drivers for their survival and/or proliferation. Therefore, DMS114 cells, a small cell lung cancer cell line with FGFR1 amplification were plated onto 10 cm culture plates and placed in an incubator at 37° C., 5% CO2. […] In the case of the parental cells with or without DMSO control, when the cells reached the confluence close to 100% they were trypsinized and re-plated back on the plate. […] After about 2-3 weeks from the initial treatment, cells were taken out of the plate by trypsinization and passaged on new plate for further expanding.
# There were also treatments of the cells with single agents with or without DMSO or treatments with DMSO alone to serve as vehicle control. The proliferation of the cells was followed using the Incucyt machine, measuring the % of confluence of the cells over time.
# [2] = system: DMS114 cells, a small cell lung cancer cell line with FGFR1 amplification; experiment: Alamar blue proliferation assay, parental DMS114 cells; format: cell-based; settings: Homo sapiens, DMS-114, 96 h, Parental cells (with DMSO control), 4 days
# [3] = system: resistant DMS114 cells; experiment: Alamar blue proliferation assay, DMS114 cells resistant to compound A; format: cell-based
# [4] = system: resistant DMS114 cells; experiment: Incucyte proliferation, resistant DMS114 cells kept in compound A, long-term treatment; format: cell-based; settings: resistant DMS114 cells kept in compound A 1 microM; GSK1838705A 1 microM; over 33 days
# Text: An additional experiment was run wherein the resistant DMS114 cells were exposed to 1 microM of GSK1838705A and the growth/proliferation of the cells was monitored on the Incucyte machine. Cells were kept under this condition for over 33 days, and the medium was replaced twice a week.
# [5] = system: most sensitive cancer cell lines; experiment: Cell based proliferation assay (alamar blue assay), cancer cell lines; settings: read-out: IC50 in the most sensitive cancer cell lines
# Protocol: Cells were seeded in 180 μl of medium at optimized cell densities in black 96 well plates with clear flat bottom. The outer wells were filled with 180 μl of medium. Cells were incubated for 24 hours at 37° C. and 5% CO2.
# Compound/medium plates were placed on a shaker for 10 minutes and then 20 μl of compound in medium was added to the cells (10× dilution). Cells were incubated at 37° C. and 5% CO2 for 4 days until alamarBlue® readout.
# After 4 days of incubation with compound: Add 40 μl of alamarBlue® ready to use mix to each well. Incubate plates at 37° C. and 5% CO2. Measure plates after 4 or 6 hours of incubation (depends on cell line).
Compound,"proliferation (% confluence over time), single agent [1]",IC50 [2] [µM],"IC50 ([3]; Homo sapiens, DMS-114, 96 h, Resistant cells, 4 days) [µM]",inhibition of proliferation of resistant DMS114 cells ([3]; resistant DMS114 cells),"proliferation of resistant cells, long term treatment [4]",IC50 [5] [µM]
C[C@@]1(C(=O)Nc2ccc(F)nc2)CCCN1c1nc(Nc2cc(C3CC3)[nH]n2)c2cccn2n1 [BMS-754807],did not impact the proliferation,–,–,–,–,–
CNC(=O)c1c(F)cccc1Nc1nc(Nc2cc3c(cc2OC)CCN3C(=O)CN(C)C)nc2[nH]ccc12 [GSK1838705A],did not impact the proliferation,> 10,2,strongly inhibited the proliferation of the resistant DMS114 cells,completely blocked and over the long term treatment (>30 days) did not gain ability to grow out,–
"COc1cc(OC)c(F)c(N(Cc2ncc[nH]2)c2ccc3ncc(-c4cnn(C)c4)nc3n2)c1 [compound B, N-(2-fluoro-3,5-dimethoxyphenyl)-N-(1H-imidazol-2-ylmethyl)-3-(1-methyl-1H-pyrazol-4-yl)pyrido[2,3-b]pyrazin-6-amine]",–,–,–,–,–,< 0.01

# Source: patent publication US10736900B2, “Combinations of an FGFR inhibitor and an IGF1R inhibitor” (ASTEX THERAPEUTICS LTD, priority 2014, dated 2020)
